Results published in patent US20090062255A1, “TUMOR-TARGETING EVALUATION METHODOLOGY AND COMPOUNDS RELATED THERETO” (THALLION PHARMACEUTICALS INC., priority 2007, published 2009).
“And” between values parts separate entries of the source, which are not always exact repeats. Equal values may be shown once. Read-outs that look alike come from different tables or passages of the source.

Tests used:
[1] = tested on: PC-3 (prostate adenocarcinoma); experiment: In vitro cytotoxic activity (GI50, propidium iodide), PC-3; assay type: cell-based, human; conditions: Homo sapiens, 96 h, method (1)
Experimental: (§1) Procedures used for each series of tests are described below.
(§2) Compounds were dissolved at 10 mM in DMSO. […] The following day, propidium iodide was added to one of the two plates and fluorescence measured (Tz). […] Each compound was tested at each concentration and in triplicates. The equivalent cell number was determined after adding propidium iodide by measuring the signal by fluorescence (C for control).

[2] = molecular target: T1, human 5-LO (Homo sapiens, UniProt P09917); experiment: 5-LO inhibition assay (EIA quantitation of LTB4); assay type: biochemical; conditions: 4 μM compound, 1% DMSO; read-out: Percentage of inhibition or binding activity, 5-LO (4 μM)
T1 construct: Human peripheral blood […] (PMNs) were isolated through a Ficoll-Paque density gradient; endogenous in cells; host or cells: human peripheral blood mononuclear cells (PBML/PMNs)
T1 sequence (P09917 1-674): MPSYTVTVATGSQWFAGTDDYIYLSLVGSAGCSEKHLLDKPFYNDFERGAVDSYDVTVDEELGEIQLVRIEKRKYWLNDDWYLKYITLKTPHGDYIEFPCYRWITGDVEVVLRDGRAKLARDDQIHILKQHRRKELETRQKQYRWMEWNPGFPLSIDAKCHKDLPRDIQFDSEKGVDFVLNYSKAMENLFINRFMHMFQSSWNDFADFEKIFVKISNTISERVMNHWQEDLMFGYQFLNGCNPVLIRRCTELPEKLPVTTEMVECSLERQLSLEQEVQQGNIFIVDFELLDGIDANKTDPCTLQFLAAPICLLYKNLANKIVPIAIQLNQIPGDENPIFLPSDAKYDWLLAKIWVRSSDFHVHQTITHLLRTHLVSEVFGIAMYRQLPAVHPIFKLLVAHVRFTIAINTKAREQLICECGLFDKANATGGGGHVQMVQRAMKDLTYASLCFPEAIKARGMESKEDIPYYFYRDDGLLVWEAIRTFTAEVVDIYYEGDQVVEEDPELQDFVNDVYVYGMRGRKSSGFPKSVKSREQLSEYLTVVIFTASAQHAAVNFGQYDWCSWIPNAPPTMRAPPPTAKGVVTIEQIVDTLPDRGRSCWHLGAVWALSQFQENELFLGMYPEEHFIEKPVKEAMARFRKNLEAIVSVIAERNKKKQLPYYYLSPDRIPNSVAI
Experimental: 5-Lipoxygenase (5-LO) catalyzes the oxidative metabolism of arachidonic acid to 5-hydroxyeicosatetraenoic acid (5-HETE), the initial reaction leading to formation of leukotrienes.
Human peripheral blood […] (PMNs) were isolated through a Ficoll-Paque density gradient. PMNs were stimulated by addition A23187 (30 μM final concentration). […] Following incubation, samples were neutralized with NaOH and centrifuged. Leukotriene B4 content was measured in the supernatant using an Enzyme Immunosorbant Assay (EIA) assay. The experiment was performed in triplicate.
The procedures used are based on the respective references mentioned above and the conditions are summarized in Tables 16 (enzyme assays) and 17 (radioligand receptor assays).
Binding Assays were done at constant concentration of the compound, in 1% DMSO as vehicle, and are specified below each enzyme/receptor type in Table 18. The results are expressed in Table 18 as percentage inhibition. Significance was obtained when a result was ≧50% binding or inhibition (underlined).

[3] = tested on: HT-29 (colorectal carcinoma); experiment: In vitro cytotoxic activity (GI50, propidium iodide), HT-29; assay type: cell-based; conditions: for GI50: Homo sapiens, HT-29, 96 h, method (1), 96 hours
Experimental: as §1, §2

[4] = tested on: SRBC; experiment: Hemolysis of SRBC; assay type: cell-based; conditions: concentration necessary to achieve 50% hemolysis of SRBC
[5] = tested on: MDA-MB-231 (mammary gland adenocarcinoma); experiment: In vitro cytotoxic activity (GI50, propidium iodide), MDA-MB-231; assay type: cell-based, human; conditions: Homo sapiens, MDA-MB-231, 96 h, method (1), 96 hours
Experimental: as §1, §2

[6] = tested on: SF268 (CNS); experiment: In vitro cytotoxic activity (GI50, propidium iodide), SF-268; assay type: cell-based; conditions: Homo sapiens, SF-268, 96 h, method (1), 96 hours
Experimental: as §1, §2

[7] = for MTD: mouse, in vivo
[8] = tested on: DN oligodendroglioma cell line; experiment: MTT cytotoxicity, DN cell line; assay type: cell-based; conditions: 96 h, Human
Experimental: The cytotoxic activity of Compound 1 was further evaluated using a panel of brain tumor cell lines. This study was performed in collaboration with INSERM (Grenoble, France). Tumor cells (5,000 to 10,000 cells per well depending on their doubling time) were plated in 96-well flat-bottom plates and incubated for 24 hours before treatment. Tumor cells were then incubated for 96 hours with seven different concentrations of Compound 1: […], 0.01, and 0.001 μM. The in vitro cytotoxic activity was determined by a standard MTT assay.

[9] = molecular target: T2, PBR (Rattus norvegicus, UniProt P16257); experiment: In vivo PBR occupancy by PET (11C-(R)-PK11195) following IV bolus and CIV infusion
T2 construct: from tissue; host or cells: orthotopic rat C6 glioma in Sprague-Dawley rats, in vivo
Experimental: (R)-1-(2-chlorophenyl)-N-methyl-N-(1-methyl-propyl)-3-isoquinoline carboxamide (R N-desmethyl PK11195), the precursor for the radioisotope-labeled (R) —PK11195, was purchased from ABX (Radeburg, Germany). The synthesis of ^11C-(R)-PK11195 was accomplished by a modification of the method of Camsonne et al. (J. Label. Compd. Radiopharm., 21: 985-991,1984). Briefly, ^11C-methyl iodide (^11C—CH3I) was transferred by a stream of nitrogen gas at a flow rate of 10 ml/min into a reaction medium containing 1 mg or R—N-desmethyl PK11195 previously dissolved in 0.5 mL of dimethylsulfoxide (DMSO) and about 20 mg of sodium hydroxide. The reaction was initiated at room temperature, with a bubbling of the ^11C—CH3I being continued over a 5 minute period. After bubbling was complete, the reaction mixture was left standing for 5 minutes. Purification was performed by high pressure liquid chromatography (HPLC) using a reverse-phase C18 column and a methanol:ammonium formate (20 mM) (80:20) mixture and a mobile phase at a flow rate of 3 mL/min. ^11C—(R) —PK11195 was eluted at 11 minutes and obtained with a specific radioactivity of […].
The above study was repeated but his time ECO-4601 was administered as a bolus push followed by a continuous intra-venous (CIV) infusion of ECO-4601 obtained in the steady-state condition through the second 11C-PK11195 PET scan. […]
To determine a mean tumor binding potential (B.P.) (baseline) and the mean B.P., the simplified reference tissue method was utilized comparing the ratio of tumor to normal brain. As a result, mean tumor binding potential (B.P.) (baseline) was calculated to be 2.19±0.16 (mean±SEM) and the mean B.P. (ECO-4601) was calculated to be 0.14±0.13 (mean±SEM).

[10] = individual rats, IV bolus 30 mg/kg then CIV 5 mg/kg/hour, listed as ECO-4601

Row | Compound | GI50 [1] | inhibition at 4 µM [2] | Hemolysis (ED50 μg/mL) [4] | further results
1 | CC(=O)Oc1cc(O)c2c(c1)N(CC=C(C)CCC=C(C)CCC=C(C)C)C(=O)c1cccc(OC(C)=O)c1N2 [Compound 11, 4,8-diacetoxy-10-farnesyl-6-hydroxy-5,10-dihydro-dibenzo[b,e][1,4]diazepin-11-one] | 5.35 µM | 97% | 9.8 µg/mL | GI50 [3]: 16 µM; GI50 [5]: 7.72 µM; GI50 [6]: 5.79 µM
2 | COc1cc(OC)c2c(c1)N(C/C=C(\C)CC/C=C(\C)CCC=C(C)C)C(=O)c1cccc(O)c1N2 [Compound 6, 10-farnesyl-4-hydroxy-6,8-dimethoxy-5,10-dihydro-dibenzo[b,e][1,4]diazepin-11-one] | – | 71% | >64 µg/mL | –
3 | COc1cc(OC)c2c(c1)N(CC=C(C)CCC=C(C)CCC=C(C)C)C(=O)c1cccc(OC)c1N2 [Compound 8, 10-farnesyl-4,6,8-trimethoxy-5,10-dihydro-dibenzo[b,e][1,4]diazepin-11-one] | – | -13% | – | –
4 | CC(C)=CCC/C(C)=C/CC/C(C)=C/CN1C(=O)c2cccc(O)c2N(Cc2ccccc2)c2c(O)cc(O)cc21 [Compound 3, 5-benzyl-10-farnesyl-4,6,8-trihydroxy-5,10-dihydro-dibenzo[b,e][1,4]diazepin-11-one] | – | 72% | >64 µg/mL | –
5 | COc1cc(O)cc2c1Nc1c(O)cccc1C(=O)N2C/C=C(\C)CC/C=C(\C)CCC=C(C)C [Compound 5, 10-farnesyl-4,8-dihydroxy-6-methoxy-5,10-dihydro-dibenzo[b,e][1,4]diazepin-11-one] | – | 98% | >64 µg/mL | –
6 | CC(=O)Oc1cc(OC(C)=O)c2c(c1)N(CC=C(C)CCC=C(C)CCC=C(C)C)C(=O)c1cccc(O)c1N2 [Compound 9, 6,8-diacetoxy-10-farnesyl-4-hydroxy-5,10-dihydro-dibenzo[b,e][1,4]diazepin-11-one] | 1.44 µM | 96% | >64 µg/mL | GI50 [3]: 12.6 µM; GI50 [5]: 2.48 µM; GI50 [6]: 1.88 µM
7 | CC(=O)Oc1cc(OC(C)=O)c2c(c1)N(CC=C(C)CCC=C(C)CCC=C(C)C)C(=O)c1cccc(OC(C)=O)c1N2 [Compound 12, 4,6,8-triacetoxy-10-farnesyl-5,10-dihydro-dibenzo[b,e][1,4]diazepin-11-one] | – | 86% | >64 µg/mL | –
8 | CC(=O)Oc1cccc2c1Nc1c(OC(C)=O)cc(O)cc1N(CC=C(C)CCC=C(C)CCC=C(C)C)C2=O [Compound 10, 4,6-diacetoxy-10-farnesyl-8-hydroxy-5,10-dihydro-dibenzo[b,e][1,4]diazepin-11-one] | 1.35 µM | 97% | >64 µg/mL | GI50 [3]: 13 µM; GI50 [5]: 1.55 µM; GI50 [6]: 2.02 µM
9 | COc1cccc2c1Nc1c(OC)cc(O)cc1N(CC=C(C)CCC=C(C)CCC=C(C)C)C2=O [Compound 7, 10-farnesyl-8-hydroxy-4,6-dimethoxy-5,10-dihydro-dibenzo[b,e][1,4]diazepin-11-one] | – | 63% | >64 µg/mL | –
10 | CC(C)=CCC/C(C)=C/CC/C(C)=C/CN1C(=O)c2cccc(O)c2N(C)c2c(O)cc(O)cc21 [Compound 2, 10-farnesyl-4,6,8-trihydroxy-5-methyl-5,10-dihydro-dibenzo[b,e][1,4]diazepin-11-one] | – | 93% | 5.12 µg/mL | increase of cytotoxic activity compared to parent Compound 1 ([3]; HT-29 cell line): fifty fold increase; weight losses ([7]; for several days post-injection): about 7%; MTD ([7]; ip): ≥ 50 mg/kg
11 | CC(C)=CCC/C(C)=C/CC/C(C)=C/CN1C(=O)c2cccc(O)c2Nc2c(O)cc(O)cc21 [Compound 1, 10-farnesyl-4,6,8-trihydroxy-5,10-dihydrodibenzo[b,e][1,4]diazepin-11-one] | – | 99% | 7.6 µg/mL | MTD ([7]; iv): 150 mg/kg; IC50 [8]: 3 ± 0.7 µM; mean tumor binding potential (B.P.) after compound ([9]; CIV infusion, mean±SEM, n=6): 0.14±0.13; reduction of PBR occupancy for 11C-(R)-PK11195 binding, average ([9]; CIV infusion, n=6): 91.67%; % PBR occupancy [9, 10]: 100% and 30% and 50%; Binding Potential (ECO-4601) [9, 10]: 0 (5×) and 1.81 and 0.84
12 | COc1cccc2c1Nc1c(O)cc(O)cc1N(C/C=C(\C)CC/C=C(\C)CCC=C(C)C)C2=O [Compound 4, 10-farnesyl-6,8-dihydroxy-4-methoxy-5,10-dihydro-dibenzo[b,e][1,4]diazepin-11-one] | – | 98% | >64 µg/mL | –
13 | CC(C)CCCC(C)CCCC(C)CCN1C(=O)c2cccc(O)c2Nc2c(O)cc(O)cc21 (centres unmarked) [Compound 46, 10-(3,7,11-trimethyldodecyl)-4,6,8-trihydroxy-5,10-dihydro-dibenzo[b,e][1,4]diazepin-11-one] | 0.9 µM | 65% | 13.9 µg/mL | –
